This passage reports mutagenic call results from PubChem BioAssay AID1259407 (Chemical Carcinogenesis Research Information System (CCRIS), 2018).

Each structure is given as a SMILES string. The source made the active and inactive calls. No rule for the calls is given here.

For the data set, the system named is CCRIS mutagenicity, Ames/micronucleus/aberration tests. Kind of data set: CCRIS mutagenicity studies.
Where [1] appears, read: Test System: AMES SALMONELLA TYPHIMURIUM, Strain/Indicator: TA98, Metabolic Activation: NONE, Method: PREINCUBATION
The mark [2] stands for this setting: Test System: MOUSE LYMPHOMA, Strain/Indicator: L5178Y (TK+/TK-), Metabolic Activation: NONE, Method: SUSPENSION/PLATE.
Setting [3] is: Test System: AMES SALMONELLA TYPHIMURIUM, Strain/Indicator: TA98, Metabolic Activation: NONE, Method: STANDARD PLATE.
Where [4] appears, read: Test System: AMES SALMONELLA TYPHIMURIUM, Strain/Indicator: TA100, Metabolic Activation: NONE, Method: STANDARD PLATE.
[5] abbreviates: Test System: AMES SALMONELLA TYPHIMURIUM, Strain/Indicator: TA100, Metabolic Activation: RAT, LIVER, S-9, AROCLOR 1254, Method: STANDARD PLATE.

Regarding `O=CCC=O`, the mutagenic call is “inactive; negative” (End Point: IN VITRO CHROMOSOMAL ABERRATIONS, Test System: CHO CELLS, Metabolic Activation: RAT, LIVER, S-9, AROCLOR 1254); “active; positive” (Test System: AMES SALMONELLA TYPHIMURIUM, Strain/Indicator: HISD3052, Metabolic Activation: NONE, Method: STANDARD PLATE); “inactive; negative” (Test System: AMES SALMONELLA TYPHIMURIUM, Strain/Indicator: TA94, Metabolic Activation: NONE, Method: STANDARD PLATE); “inactive; negative” (Test System: AMES SALMONELLA TYPHIMURIUM, Strain/Indicator: TA98, Metabolic Activation: HAMSTER, LIVER, S-9, AROCLOR 1254, Method: PREINCUBATION); “inactive; negative” under setting [1]; “inactive; negative” (Test System: AMES SALMONELLA TYPHIMURIUM, Strain/Indicator: TA98, Metabolic Activation: RAT, LIVER, S-9, AROCLOR 1254, Method: PREINCUBATION). Besides, the mutagenic call (Test System: AMES SALMONELLA TYPHIMURIUM, Strain/Indicator: TA100, Metabolic Activation: HAMSTER, LIVER, S-9, AROCLOR 1254, Method: PREINCUBATION) is “inactive; negative”; the mutagenic call (Test System: AMES SALMONELLA TYPHIMURIUM, Strain/Indicator: TA100, Metabolic Activation: NONE, Method: PREINCUBATION) was “inactive; negative”; the mutagenic call (Test System: AMES SALMONELLA TYPHIMURIUM, Strain/Indicator: TA100, Metabolic Activation: RAT, LIVER, S-9, AROCLOR 1254, Method: PREINCUBATION) was “inactive; negative”; the mutagenic call (Test System: AMES SALMONELLA TYPHIMURIUM, Strain/Indicator: TA102, Metabolic Activation: NONE, Method: PREINCUBATION) was “active; positive”; the mutagenic call (Test System: AMES SALMONELLA TYPHIMURIUM, Strain/Indicator: TA104, Metabolic Activation: NONE, Method: PREINCUBATION) was “active; positive”; the mutagenic call (Test System: AMES SALMONELLA TYPHIMURIUM, Strain/Indicator: TA1535, Metabolic Activation: HAMSTER, LIVER, S-9, AROCLOR 1254, Method: PREINCUBATION) was “inactive; negative”. In addition, the mutagenic call by setting is: (Test System: AMES SALMONELLA TYPHIMURIUM, Strain/Indicator: TA1535, Metabolic Activation: NONE, Method: PREINCUBATION) “inactive; negative”; (Test System: AMES SALMONELLA TYPHIMURIUM, Strain/Indicator: TA1535, Metabolic Activation: RAT, LIVER, S-9, AROCLOR 1254, Method: PREINCUBATION) “inactive; negative”; (Test System: AMES SALMONELLA TYPHIMURIUM, Strain/Indicator: TA1537, Metabolic Activation: HAMSTER, LIVER, S-9, AROCLOR 1254, Method: PREINCUBATION) “inactive; negative”; (Test System: AMES SALMONELLA TYPHIMURIUM, Strain/Indicator: TA1537, Metabolic Activation: NONE, Method: PREINCUBATION) “inactive; negative”; (Test System: AMES SALMONELLA TYPHIMURIUM, Strain/Indicator: TA1537, Metabolic Activation: RAT, LIVER, S-9, AROCLOR 1254, Method: PREINCUBATION) “inactive; negative”; under setting [2], “active; positive”.

As for `ClC1C=Cc2cc3c4c(ccc5cccc(c54)C=3)c2=C1` (stereo not given), the mutagenic call under setting [1] is “active; positive”.

As for `[C-]#[O+].[C-]#[O+].[Ni].c1ccc([PH+](c2ccccc2)c2ccccc2)cc1.c1ccc([PH+](c2ccccc2)c2ccccc2)cc1`, the mutagenic call runs as follows: (Test System: Ames Salmonella typhimurium, Strain/Indicator: TA100, Metabolic Activation: None, Method: Preincubation) “inactive; negative”; (Test System: Ames Salmonella typhimurium, Strain/Indicator: TA100, Metabolic Activation: Rat, Liver, S-9, Phenobarbital and 5,6-benzoflavone, Method: Preincubation) “inactive; negative”; (Test System: Ames Salmonella typhimurium, Strain/Indicator: TA102, Metabolic Activation: None, Method: Preincubation) “inactive; negative”; (Test System: Ames Salmonella typhimurium, Strain/Indicator: TA102, Metabolic Activation: Rat, Liver, S-9, Phenobarbital and 5,6-benzoflavone, Method: Preincubation) “inactive; negative”.

Turning to `O=[N+]([O-])c1ccc(Cl)c(F)c1`, the mutagenic call (End Point: IN VITRO CHROMOSOMAL ABERRATIONS, Test System: HUMAN PERIPHERAL LYMPHOCYTES, Metabolic Activation: NONE) is “inactive; negative”.

Regarding `[S]=[Pb]`, the mutagenic call (Test System: CHINESE HAMSTER V-79, Strain/Indicator: V-79/6-THIOGUANINE, Metabolic Activation: NONE, Method: STANDARD PLATE) was “active; positive”.

For `c1ccc2c(c1)C1OOC2c2ccccc21`, the mutagenic call reads like this: under setting [3], “inactive; negative”; under setting [4], “inactive; negative”; under setting [5], “inactive; negative”.

Consider `C/C=C/Cl`, for which the mutagenic call was “active; positive” (Test System: AMES SALMONELLA TYPHIMURIUM, Strain/Indicator: TA100, Metabolic Activation: NONE, Method: DESICCATOR) and “active; positive” (Test System: AMES SALMONELLA TYPHIMURIUM, Strain/Indicator: TA100, Metabolic Activation: RAT, LIVER, S-9, PCB OR PHENOBARBITAL, Method: DESICCATOR).

With `CC(=O)c1ccccn1`, the mutagenic call is “inactive; negative” (Test System: AMES SALMONELLA TYPHIMURIUM, Strain/Indicator: TA98, Metabolic Activation: HAMSTER, LIVER, S-9, AROCLOR 1254, Method: STANDARD PLATE); “inactive; negative” under setting [3]; “inactive; negative” (Test System: AMES SALMONELLA TYPHIMURIUM, Strain/Indicator: TA98, Metabolic Activation: RAT, LIVER, S-9, AROCLOR 1254, Method: STANDARD PLATE); “inactive; negative” (Test System: AMES SALMONELLA TYPHIMURIUM, Strain/Indicator: TA100, Metabolic Activation: HAMSTER, LIVER, S-9, AROCLOR 1254, Method: STANDARD PLATE); “inactive; negative” under setting [4]; “inactive; negative” under setting [5]. The mutagenic call reads like this: (Test System: AMES SALMONELLA TYPHIMURIUM, Strain/Indicator: TA1535, Metabolic Activation: HAMSTER, LIVER, S-9, AROCLOR 1254, Method: STANDARD PLATE) “inactive; negative”; (Test System: AMES SALMONELLA TYPHIMURIUM, Strain/Indicator: TA1535, Metabolic Activation: NONE, Method: STANDARD PLATE) “inactive; negative”; (Test System: AMES SALMONELLA TYPHIMURIUM, Strain/Indicator: TA1535, Metabolic Activation: RAT, LIVER, S-9, AROCLOR 1254, Method: STANDARD PLATE) “inactive; negative”; (Test System: AMES SALMONELLA TYPHIMURIUM, Strain/Indicator: TA1537, Metabolic Activation: HAMSTER, LIVER, S-9, AROCLOR 1254, Method: STANDARD PLATE) “inactive; negative”; (Test System: AMES SALMONELLA TYPHIMURIUM, Strain/Indicator: TA1537, Metabolic Activation: NONE, Method: STANDARD PLATE) “inactive; negative”; (Test System: AMES SALMONELLA TYPHIMURIUM, Strain/Indicator: TA1537, Metabolic Activation: RAT, LIVER, S-9, AROCLOR 1254, Method: STANDARD PLATE) “inactive; negative”. For the same compound, the mutagenic call by setting is: (Test System: AMES SALMONELLA TYPHIMURIUM, Strain/Indicator: TA1538, Metabolic Activation: HAMSTER, LIVER, S-9, AROCLOR 1254, Method: STANDARD PLATE) “inactive; negative”; (Test System: AMES SALMONELLA TYPHIMURIUM, Strain/Indicator: TA1538, Metabolic Activation: NONE, Method: STANDARD PLATE) “inactive; negative”; (Test System: AMES SALMONELLA TYPHIMURIUM, Strain/Indicator: TA1538, Metabolic Activation: RAT, LIVER, S-9, AROCLOR 1254, Method: STANDARD PLATE) “inactive; negative”; under setting [2], “active; positive. reevaluation of results: positive”; (Test System: MOUSE LYMPHOMA, Strain/Indicator: L5178Y (TK+/TK-), Metabolic Activation: RAT, LIVER, S-9, AROCLOR 1254, Method: SUSPENSION/PLATE) “active; positive. reevaluation of results: inconclusive”.

As to `O=C1C=CC(=C(Cl)Cl)O1`, the mutagenic call under setting [4] is “active; positive”.

On to `COc1c(C(=O)O)c(=O)[nH]c2ccccc12`, for which the mutagenic call under setting [3] was “inactive; negative” and the mutagenic call (Test System: AMES SALMONELLA TYPHIMURIUM, Strain/Indicator: TA98, Metabolic Activation: RAT LIVER S-9, PHENOBARTITAL, Method: STANDARD PLATE) is “inactive; negative”.
